Test results: patent US11427567B2, “Imidazolyl pyrimidinylamine compounds as CDK2 inhibitors” (Incyte Corporation, priority 2019, dated 2022)

The molecules below were run against CDK2/Cyclin E1 (Homo sapiens (Human), UniProt P24941) (assay: CDK2/Cyclin E1 HTRF enzyme activity assay (Example A)). Settings: 1 mM ATP.
Format: biochemical
Protocol: Assays were conducted in white 384-well polystyrene plates in a final reaction volume of 8 μL. […] HTRF signals were read after 1 hour at room temperature on a PHERAstar FS plate reader (BMG Labtech). Data was analyzed with IDBS XLFit and GraphPad Prism 5.0 software using a three or four parameter dose response curve to determine IC50 for each compound.

**Q.** For `Cc1nc(-c2nc(NC3CCN(S(C)(=O)=O)CC3)ncc2C(F)(F)F)cn1-c1ccc(N2CC[C@H](N(C)C)C2)cc1F` [Example 110, (S)-4-(1-(4-(3-(Dimethylamino)-pyrrolidin-1-yl)-2-fluorophenyl)-2-methyl-1H-imidazol-4-yl)-N-(1-(methyl-sulfonyl)piperidin-4-yl)-5-(trifluoro-methyl)pyrimidin-2-amine], which IC50 is on record?
**A.** ≤ 50 nM

**Q.** Which IC50 does the source give for `Cc1nc(-c2nc(NC3CCN(S(C)(=O)=O)CC3)ncc2C(F)(F)F)cn1-c1ccc(N2CCNCC2)cc1F` [Example 111, 4-(1-(2-Fluoro-4-(piperazin-1-yl)-phenyl)-2-methyl-1H-imidazol-4-yl)-N-(1-(methyl-sulfonyl)piperidin-4-yl)-5-(trifluoro-methyl)pyrimidin-2-amine] here?
**A.** ≤ 50 nM

**Q.** How did the IC50 turn out when `COCCNc1ccc(-n2cc(-c3nc(NC4CCN(S(C)(=O)=O)CC4)ncc3C(F)(F)F)nc2C)c(F)c1` [Example 112, 4-(1-(2-Fluoro-4-((2-methoxyethyl)-amino)phenyl)-2-methyl-1H-imidazol-4-yl)-N-(1-(methyl-sulfonyl)piperidin-4-yl)-5-(trifluoro-methyl)pyrimidin-2-amine] was run?
**A.** ≤ 50 nM

**Q.** For `Cc1nc(-c2nc(NC3CCN(S(C)(=O)=O)CC3)ncc2C(F)(F)F)cn1-c1ccc(N(C)CCO)cc1F` [Example 113, 2-((3-Fluoro-4-(2-methyl-4-(2-((1-(methyl-sulfonyl)piperidin-4-yl)amino)-5-(trifluoromethyl)-pyrimidin-4-yl)-1H-imidazol-1-yl)phenyl)(methyl)-amino)ethan-1-ol], which IC50 is on record?
**A.** ≤ 50 nM

**Q.** `Cc1nc(-c2nc(NC3CCN(S(C)(=O)=O)CC3)ncc2C(F)(F)F)cn1-c1ccc(N2CCC(N3CCCC3)CC2)cc1F` [Example 114, 4-(1-(2-Fluoro-4-(4-(pyrrolidin-1-yl)piperidin-1-yl)-phenyl)-2-methyl-1H-imidazol-4-yl)-N-(1-(methyl-sulfonyl)piperidin-4-yl)-5-(trifluoro-methyl)pyrimidin-2-amine] was tested. Which IC50 did it give?
**A.** ≤ 50 nM

**Q.** `Cc1nc(-c2nc(NC3CCN(S(C)(=O)=O)CC3)ncc2C(F)(F)F)cn1-c1ccc(N2CCN[C@H](C)C2)cc1F` [Example 115, (R)-4-(1-(2-Fluoro-4-(3-methyl-piperazin-1-yl)-phenyl)-2-methyl-1H-imidazol-4-yl)-N-(1-(methyl-sulfonyl)piperidin-4-yl)-5-(trifluoro-methyl)pyrimidin-2-amine] was tested. Which IC50 did it give?
**A.** ≤ 50 nM

**Q.** `Cc1nc(-c2nc(NC3CCN(S(C)(=O)=O)CC3)ncc2C(F)(F)F)cn1-c1ccc(N2CC[C@H](O)C2)cc1F` [Example 116, (S)-1-(3-Fluoro-4-(2-methyl-4-(2-((1-(methylsulfonyl)-piperidin-4-yl)-amino)-5-(trifluoro-methyl)pyrimidin-4-yl)-1H-imidazol-1-yl)phenyl)pyrrolidin-3-ol] was tested. Which IC50 did it give?
**A.** ≤ 50 nM

**Q.** With `Cc1nc(-c2nc(NC3CCN(S(C)(=O)=O)CC3)ncc2C(F)(F)F)cn1-c1ccc(N[C@@H]2CCCN(C)C2)cc1F` [Example 117] as the molecule, how does the IC50 read?
**A.** ≤ 50 nM

**Q.** For `Cc1nc(-c2nc(N[C@H]3CCN(S(C)(=O)=O)C[C@H]3F)ncc2C(F)(F)F)cn1-c1ccc(N2CCC(N(C)C)CC2)cc1F` [Example 118, 4-(1-(4-(4-(Dimethylamino)piperidin-1-yl)-2-fluorophenyl)-2-methyl-1H-imidazol-4-yl)-N-((3R,4S)-3-fluoro-1-(methylsulfonyl)piperidin-4-yl)-5-(trifluoromethyl)pyrimidin-2-amine], which IC50 is on record?
**A.** ≤ 50 nM

**Q.** Which IC50 does the source give for `Cn1nccc1-c1ccc(-n2cnc(-c3nc(NC4CCN(S(C)(=O)=O)CC4)ncc3C(F)(F)F)c2)c(Cl)c1` [Example 119, 4-(1-(2-Chloro-4-(1-methyl-1H-pyrazol-5-yl)phenyl)-1H-imidazol-4-yl)-N-(1-(methylsulfonyl)piperidin-4-yl)-5-(trifluoromethyl)pyrimidin-2-amine] here?
**A.** ≤ 50 nM
